Read-outs that look alike come from different tables or passages of the source.
Tests used:
A549 cells [1] = test: Antiproliferative effect of pUNO1-hTRAIL vs pCMV-Gluc lipoplexes, MTT, A549; assay type: cell-based, human; conditions: N/P 3, 1 eq. DOPE, pDNA 0.3 and 0.4 μg/well
Method: Cells were treated with lipoplexes prepared from pro-APLs ME12, PE12, and EE12, with increasing dose of pDNA (0.1–0.4 μg per well). The gold standard gene delivery reagent Lipofectamine® 2000 was assayed in parallel for comparison purpose. In order to distinguish the intrinsic cytotoxic effect of the in situ generated APLs from that resulting from TRAIL expression, pCMV-Gluc was assayed in parallel to pUNO1-hTRAIL. Using pCMV-Gluc, the observed cytotoxicity was assumed to result only from the APL antiproliferative activity, whereas results obtained with pUNO1-hTRAIL are a combination of TRAIL activity and APL antiproliferative effect. […] Though the temptation is to take it as an indicator that functional TRAIL was produced, the difference found was not always statistically significant. The activity profile of the three pro-APLs varied according to the cell line. […]
Figure 8 Antiproliferative effect of lipoplexes prepared from ME12 (A), PE12 (B), EE12 (C), and the two DNA plasmids pCMV-Gluc (light bars) and pUNO1-hTRAIL (dark bars), on the three cell lines. […] Lipofectamine®-based lipoplexes (0.1 μg plasmid/well) were prepared according to the optimized experimental conditions determined following the supplier's instructions. Cell viability was measured by the MTT assay. Basal mitochondrial activity measured in untreated cells is set at 100%. […]

[2] = design: method as in Gaillard et al., 2019; conditions: pyrene fluorescence; ref Gaillard et al., 2019; cited from earlier work
[3] = design: method as in Gaillard et al., 2019; conditions: ref Gaillard et al., 2019, cited from earlier work
A549 cells [4] = system: A549 cells; design: method as in Gaillard et al., 2019; conditions: A549, 24 h at 37°C, MTT assay; ref Gaillard et al., 2019; cited from earlier work
sheep RBC = conditions: sheep RBC, 37°C, ref Gaillard et al., 2019, cited from earlier work
H292 cells = system: H292 cells; design: method as in Gaillard et al., 2019; conditions: H292, 24 h at 37°C, MTT assay; ref Gaillard et al., 2019; cited from earlier work
[5] = design: method as in Gaillard et al., 2019; conditions: lipoplexes with pCMV-Gluc, N/P 3, 1 molar equivalent of DOPE; ref Gaillard et al., 2019; cited from earlier work
16HBE cells = system: 16HBE cells; design: method as in Gaillard et al., 2019; conditions: 24 h at 37°C, MTT assay, ref Gaillard et al., 2019; cited from earlier work

## CCCCCCCC/C=C\CCCCCCCCCCCCOP(=O)(OCCC[N+](C)(C)C)OCOC(=O)CCCCCCCCCCC (stereo not shown) [EE12]
A549 cells [1]
  TRAIL-induced cell death: 15-17%
[2]
  CMC (APLs) / CAC (pro-APLs): 0.6 ± 0.2 µM
[3]; pH 4.5
  H120 (hydrolysis rate after a 120-h incubation period): 2%
[3]; pH 7.4
  H120 (hydrolysis rate after a 120-h incubation period): 17%
A549 cells [4]
  IC50: 151 ± 42 µM
Sheep RBC; 1 h
  HA200 (hemolytic activity at 200 μM): < 1%
Sheep RBC; 24 h
  HA200 (hemolytic activity at 200 μM): 18.6 ± 1.5%
H292 cells
  IC50: 125 ± 26 µM
[5]
  Particle size of lipoplexes: 141 ± 5 nm
16HBE cells
  IC50: 144 ± 66 µM

Source: paper PMC7566913, “Dual Gene Delivery Reagents From Antiproliferative Alkylphospholipids for Combined Antitumor Therapy” (Frontiers in Chemistry, 2020)
